Test results published in patent US20170037111A1, “Novel peptides and combination of peptides for use in immunotherapy against ovarian cancer and other cancers” (immatics biotechnologies GmbH, priority 2015, published 2017).

Columns and labels:
[1] = tested on: ovarian cancer; settings: clinical studies, phase as stated; cited from earlier work
[2] = tested on: CD8+ T cells; experiment: In vitro T-cell priming (immunogenicity) with aAPCs loaded with peptide/MHC and anti-CD28, pMHC multimer readout; format: cell-based, human; settings: in vitro immunogenicity; HLA-A*02 restricted peptides; positive wells among evaluable
From the text: In order to obtain information regarding the immunogenicity of the TUMAPs of the present invention, the inventors performed investigations using an in vitro T-cell priming assay based on repeated stimulations of CD8+ T cells with artificial antigen presenting cells (aAPCs) loaded with peptide/MHC complexes and anti-CD28 antibody.
In order to perform in vitro stimulations by artificial antigen presenting cells loaded with peptide-MHC complex (pMHC) and anti-CD28 antibody, the inventors first isolated CD8+ T cells from fresh HLA-A*02 leukapheresis products via positive selection using CD8 microbeads (Miltenyi Biotec, Bergisch-Gladbach, Germany) of healthy donors obtained from the University clinics Mannheim, Germany, after informed consent.
PBMCs and isolated CD8+ lymphocytes were incubated in T-cell medium (TCM) until use consisting of RPMI-Glutamax (Invitrogen, Karlsruhe, Germany) supplemented with 10% heat inactivated human AB serum (PAN-Biotech, Aidenbach, Germany), 100 U/ml Penicillin/100 μg/ml Streptomycin (Cambrex, Cologne, Germany), 1 mM sodium pyruvate (CC Pro, Oberdorla, Germany), 20 μg/ml Gentamycin (Cambrex). 2.5 ng/ml IL-7 (PromoCell, Heidelberg, Germany) and 10 U/ml IL-2 (Novartis Pharma, Nürnberg, Germany) were also added to the TCM at this step.
Generation of pMHC/anti-CD28 coated beads, T-cell stimulations and readout was performed in a highly defined in vitro system using four different pMHC molecules per stimulation condition and 8 different pMHC molecules per readout condition.
The purified co-stimulatory mouse IgG2a anti human CD28 Ab 9.3 (Jung et al., 1987) was chemically biotinylated using Sulfo-N-hydroxysuccinimidobiotin as recommended by the manufacturer (Perbio, Bonn, Germany). Beads used were 5.6 μm diameter streptavidin coated polystyrene particles (Bangs Laboratories, Illinois, USA).
pMHC used for positive and negative control stimulations were A*0201/MLA-001 (peptide […] (SEQ ID NO. 664) from modified Melan-A/MART-1) and A*0201/DDX5-001 ([…] from DDX5, SEQ ID NO. 665), respectively.
800.000 beads/200 μl were coated in 96-well plates in the presence of 4×12.5 ng different biotin-pMHC, washed and 600 ng biotin anti-CD28 were added subsequently in a volume of 200 μl. Stimulations were initiated in 96-well plates by co-incubating 1×10^6 CD8+ T cells with 2×10^5 washed coated beads in 200 μl TCM supplemented with 5 ng/ml IL-12 (PromoCell) for 3 days at 37° C. Half of the medium was then exchanged by fresh TCM supplemented with 80 U/ml IL-2 and incubating was continued for 4 days at 37° C. This stimulation cycle was performed for a total of three times. For the pMHC multimer readout using 8 different pMHC molecules per condition, a two-dimensional combinatorial coding approach was used as previously described (Andersen et al., 2012) with minor modifications encompassing coupling to 5 different fluorochromes. Finally, multimeric analyses were performed by staining the cells with Live/dead near IR dye (Invitrogen, Karlsruhe, Germany), CD8-FITC antibody clone SK1 (BD, Heidelberg, Germany) and fluorescent pMHC multimers. For analysis, a BD LSRII SORP cytometer equipped with appropriate lasers and filters was used. Peptide specific cells were calculated as percentage of total CD8+ cells. Evaluation of multimeric analysis was done using the FlowJo software (Tree Star, Oregon, USA). In vitro priming of specific multimer+CD8+ lymphocytes was detected by comparing to negative control stimulations.
Exemplary flow cytometry results after TUMAP-specific multimer staining for two peptides of the invention are shown in FIG. 3 together with corresponding negative controls.

[3] = target: HLA-A*02:01 (Homo sapiens, UniProt P04439, D140Y/D185E/D98H/E176V/E277Q/G131W/G231S/I119V/I121R/I166T/I218V/L300P/L318F/N151K/N90K/P208A/P217A/Q86G/Q94H/R138H/R169H/T345S); experiment: MHC binding assay (UV-ligand exchange, β2m ELISA, peptide exchange yield); settings: MHC class I binding score; binding to HLA-A*02:01 ranged by peptide exchange yield (UV-ligand exchange, β2m ELISA)
Outline: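 Peptide–HLA-A*02:01 complexes were formed by UV-mediated exchange of a UV-cleavable ligand for the test peptide. Exchange yield was measured by capturing complexes on streptavidin, detecting with HRP anti-β2m antibody (1 h, 37°C) and reading TMB absorbance at 450 nm.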

Substance	clinical effect in ovarian cancer patients [1]	Wells positive [%] [2]	Peptide exchange [3]
catumaxomab	promising results		
MORAb-003: anti-folate receptor alpha antibody	limited clinical benefit		
oregovomab	promising results		
Ipilimumab: anti-CTLA4 antibody, which enhances T cell activity	significant anti-tumor effects		
bevacizumab: anti-VEGF antibody	appears to be advantageous		
11 (KIFEMLEGV; listed as Homo sapiens) [compound 11]		″+″ (<20% = +)	″+++″ (≧50% = +++)
2 (SLLEADPFL; listed as Homo sapiens) [compound 2]		″+″ (<20% = +)	″+++″ (≧50% = +++)
141 (YLDFSNNRL; listed as Homo sapiens) [compound 141]		″+″ (<20% = +)	″++″ (≧20% = ++)
215 (QLINHLHAV; listed as Homo sapiens) [compound 215]		″++″ (20%-49% = ++)	″+++″ (≧50% = +++)
603 (FLIEPEHVNTV; listed as Homo sapiens) [compound 603]		″+″ (<20% = +)	″++″ (≧20% = ++)
